Measurements as given in ChEMBL document CHEMBL5584248, “Synthesis and biological characterization of an orally bioavailable lactate dehydrogenase-A inhibitor against pancreatic cancer” (Eur J Med Chem, 2024).
One block for each compound: values may come before it. Active and inactive are the calls of the source. The rule behind the calls is not given here.

What was measured:
[1] = target: L-lactate dehydrogenase A chain (Homo sapiens, UniProt P00338); assay: Inhibition of human LDH-A incubated for 10 mins in presence of […] by fluorescence based reader assay
[2] = target: L-lactate dehydrogenase B chain (Homo sapiens, UniProt P07195); assay: Inhibition of human LDH-B incubated for 10 mins in presence of […] by fluorescence based reader assay
[3] = Metabolic stability in mouse liver microsomes assessed as half-life; type: ADME, Microsome
MIA PaCa-2 [4] = assay: Inhibition of basal glycolysis in human MIA PaCa-2 cells at 10 to 30 uM; type: functional, cell-based; conditions: dose 10-30 µM
[5] = Metabolic stability in human liver microsomes assessed as compound remaining after 30 mins; type: ADME, Microsome; conditions: read-out: Stability
[6] = Metabolic stability in human liver microsomes assessed as half-life; type: ADME, Microsome
[7] = Lipophilicity, logP of compound; type: physicochemical; conditions: octanol/water
[8] = Metabolic stability in mouse liver microsomes assessed as compound remaining after 20 mins; type: ADME, Microsome; conditions: read-out: Stability
MIA PaCa-2 [9] = assay: Reduction in pyruvate level in human MIA PaCa-2 cells at 15 uM incubated for 6 to 24 hrs by UPLC-MS analysis; type: functional, cell-based; conditions: time 6-24 hrs
[10] = tested on: Pancreatic cancer organoid; assay: Antiproliferative activity against human Pancreatic cancer organoid after 72 hrs by MTS assay; type: functional, tissue-based
[11] = Metabolic stability in mouse liver microsomes assessed as intrinsic clearance per mg protein; type: ADME, Microsome
MIA PaCa-2 [12] = assay: Reduction in total ATP production rate in human MIA PaCa-2 cells at 15 to 30 uM incubated for 24 hrs by Seahorse assay; type: functional, cell-based; conditions: dose 15-30 µM
[13] = Metabolic stability in human liver microsomes assessed as compound remaining after 20 mins; type: ADME, Microsome; conditions: read-out: Stability
[14] = Half-life in CD1 mouse at 5 mg/kg, po; type: ADME, organism-based; conditions: in vivo
[15] = Clearance in CD1 mouse at 1 mg/kg, iv; type: ADME, organism-based; conditions: mouse, in vivo, iv, 1 mg/kg
[16] = Cmax in CD1 mouse at 5 mg/kg, po; type: ADME, organism-based; conditions: in vivo
[17] = Thermodynamic solubility in PBS at pH 7.4; type: physicochemical; conditions: buffer
MIA PaCa-2 [18] = assay: Reduction in intracellular lactate production in human MIA PaCa-2 cells at 15 uM incubated for 6 to 24 hrs by colorimetric assay; type: functional, cell-based; conditions: time 6-24 hrs
MIA PaCa-2 [19] = assay: Reduction in total ATP production in human MIA PaCa-2 cells at 15 to 30 uM incubated for 48 hrs by Celltiter-glo assay; type: functional, cell-based; conditions: dose 15-30 µM
[20] = Metabolic stability in mouse liver microsomes assessed as compound remaining after 10 mins; type: ADME, Microsome; conditions: read-out: Stability
[21] = Metabolic stability in mouse liver microsomes assessed as compound remaining after 60 mins; type: ADME, Microsome; conditions: read-out: Stability
[22] = Cmax in CD1 mouse at 1 mg/kg, iv; type: ADME, organism-based; conditions: in vivo
MIA PaCa-2 [23] = assay: Reduction in glycolytic ATP production rate in human MIA PaCa-2 cells at 15 to 30 uM incubated for 24 hrs by Seahorse assay; type: functional, cell-based; conditions: dose 15-30 µM
MIA PaCa-2 [24] = assay: Reduction in isocitric acid level in human MIA PaCa-2 cells at 15 uM incubated for 24 hrs by UPLC-MS analysis; type: functional, cell-based
[25] = Cytotoxicity against HPNEs incubated for 48 hrs by Hoechst 33342 and SYTOX green staining based confocal imaging analysis; type: toxicity, cell-based; conditions: human, HPNE cells
MIA PaCa-2 [26] = assay: Antiproliferative activity against human MIA PaCa-2 cells incubated for 48 hrs by Hoechst 33342 and SYTOX green staining based confocal imaging analysis; type: functional, cell-based; conditions: MIA PaCa-2, 48 h
MIA PaCa-2 [27] = assay: Reduction in citric acid level in human MIA PaCa-2 cells at 15 uM incubated for 24 hrs by UPLC-MS analysis; type: functional, cell-based
MIA PaCa-2 [28] = assay: Synergistic antiproliferative activity against human MIA PaCa-2 cells at 20 uM incubated for 48 hrs in presence of phenformin by fluorescence based confocal imaging analysis; type: functional, cell-based
[29] = Tmax in CD1 mouse at 5 mg/kg, po; type: ADME, organism-based; conditions: in vivo
[30] = Metabolic stability in human liver microsomes assessed as compound remaining after 60 mins; type: ADME, Microsome; conditions: read-out: Stability
[31] = Half-life in CD1 mouse at 1 mg/kg, iv; type: ADME, organism-based; conditions: in vivo
MIA PaCa-2 [32] = assay: Reduction in succinic acid level in human MIA PaCa-2 cells at 15 uM incubated for 6 hrs by UPLC-MS analysis; type: functional, cell-based
[33] = Oral bioavailability in CD1 mouse at 5 mg/kg; type: ADME, organism-based; conditions: in vivo
[34] = Metabolic stability in mouse liver microsomes assessed as compound remaining after 30 mins; type: ADME, Microsome; conditions: read-out: Stability
PANC-1 = assay: Antiproliferative activity against human PANC-1 cells incubated for 48 hrs by Hoechst 33342 and SYTOX green staining based confocal imaging analysis; type: functional, cell-based; conditions: PANC-1, 48 h
[35] = AUC(0 to infinity) in CD1 mouse at 1 mg/kg, iv; type: ADME, organism-based; conditions: in vivo
MIA PaCa-2 [36] = assay: Reduction in total ATP production in human MIA PaCa-2 cells at 10 uM incubated for 48 hrs by Celltiter-glo assay; type: functional, cell-based
[37] = Volume of distribution in CD1 mouse at 1 mg/kg, iv; type: ADME, organism-based; conditions: in vivo
[38] = Antiproliferative activity against mouse FC-1199 cells incubated for 48 hrs by Hoechst 33342 and SYTOX green staining based confocal imaging analysis; type: functional, cell-based; conditions: FC-1199, 48 h
MIA PaCa-2 [39] = assay: Reduction in lactate production in human MIA PaCa-2 cells incubated for 6 hrs by colorimetric assay; type: functional, cell-based; conditions: dose 15-30 µM
[40] = Metabolic stability in human liver microsomes assessed as compound remaining after 10 mins; type: ADME, Microsome; conditions: read-out: Stability
[41] = AUC(0 to infinity) in CD1 mouse at 5 mg/kg, po; type: ADME, organism-based; conditions: in vivo
[42] = Metabolic stability in human liver microsomes assessed as intrinsic clearance per mg protein; type: ADME, Microsome
MIA PaCa-2 [43] = assay: Inhibition of compensatory glycolysis in human MIA PaCa-2 cells at 10 to 30 uM; type: functional, cell-based; conditions: dose 10-30 µM

Sequence of L-lactate dehydrogenase B chain (P07195 whole entry): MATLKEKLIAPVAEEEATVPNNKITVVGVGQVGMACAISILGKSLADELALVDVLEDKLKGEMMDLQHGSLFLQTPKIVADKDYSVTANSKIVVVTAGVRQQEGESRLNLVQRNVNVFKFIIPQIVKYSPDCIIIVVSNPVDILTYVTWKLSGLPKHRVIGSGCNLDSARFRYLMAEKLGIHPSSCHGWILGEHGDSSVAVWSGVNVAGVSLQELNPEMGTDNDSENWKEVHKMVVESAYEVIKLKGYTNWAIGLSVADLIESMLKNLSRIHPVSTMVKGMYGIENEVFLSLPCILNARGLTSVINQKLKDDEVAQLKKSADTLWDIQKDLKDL

SMILES: Cn1ccnc1C(=O)c1ccc(NC(=O)CC(C(=O)O)c2csc(-c3ccccc3)n2)cc1 (centres undefined)
IC50 [1]: 29.9 µM

SMILES: O=C(CC(C(=O)O)c1ccc(C(F)(F)F)cc1)Nc1ccc(-c2cccs2)cc1 (centres undefined)
IC50 [2]: > 100 µM
IC50 [1]: > 100 µM

SMILES: COc1ccc(C(CC(=O)Nc2ccc(C(=O)c3nccn3C)cc2)C(=O)O)cc1 (centres undefined)
IC50 [1]: 54.5 µM

SMILES: O=C(O)CC(NC(=O)CCc1ccccc1)c1cccc(Cl)c1 (centres undefined)
IC50 [2]: > 100 µM
IC50 [1]: > 100 µM

Further lines, with some results ahead:

IC50 [2]: > 100 µM
IC50 [1]: > 100 µM
SMILES: O=C(O)CC(NC(=O)Cc1ccc(C(F)(F)F)cc1)c1cccc(Cl)c1 (centres undefined)

t1/2 [3]: > 1 h
remaining at 0.5 h [5]: 90.5%
t1/2 [6]: > 1 h
logP [7]: 2.47
remaining at 20 min [8]: 96%
IC50 [10]: 32.3 µM
CLint [11]: < 23 µL/min/mg
remaining at 20 min [13]: 94.8%
half-life [14]: 2.4 h
clearance [15]: 110 mL/min/kg
Cmax [16]: 10.4 µM
Therm_solubility [17]: 7685 µg/mL
remaining at 10 min [20]: 98.6%
remaining at 1 h [21]: 88.4%
Cmax [22]: 21.2 µM
Tmax [29]: 0.5 h
remaining at 1 h [30]: 75.6%
half-life [31]: 2.9 h
F [33]: 33%
remaining at 0.5 h [34]: 98%
AUC(0-inf) [35]: 10 µM·h
Vd [37]: 0.9 L/kg
remaining at 10 min [40]: 95.5%
AUC(0-inf) [41]: 36.4 µM·h
CLint [42]: < 23 µL/min/mg
SMILES: Cn1ccnc1C(=O)c1ccc(NC(=O)CC(C(=O)O)c2ccc(C(F)(F)F)cc2)cc1 (centres undefined)
inhibition (MIA PaCa-2 [4]): Active
Activity (MIA PaCa-2 [9]): Active
Activity (MIA PaCa-2 [12]): Active
Activity (MIA PaCa-2 [18]): Active
Activity (MIA PaCa-2 [19]): Active
Activity (MIA PaCa-2 [23]): Active
Activity (MIA PaCa-2 [24]): Active
IC50 at 48 h [25]: > 50 µM
IC50 (MIA PaCa-2 [26]): 14.1 µM
Activity (MIA PaCa-2 [27]): Active
Activity (MIA PaCa-2 [28]): Active
Activity (MIA PaCa-2 [32]): Active
IC50 (PANC-1): 43.3 µM
Activity (MIA PaCa-2 [36]): inactive
IC50 [38]: 20.8 µM
Activity (MIA PaCa-2 [39]): Dose-Dependent Effect
inhibition (MIA PaCa-2 [43]): Active

IC50 [1]: 37.8 µM
SMILES: COC(=O)C(CC(=O)Nc1ccc(C(=O)c2nccn2C)cc1)c1ccc(F)cc1 (centres undefined)

IC50 [2]: > 100 µM
IC50 [1]: > 100 µM
SMILES: COC(=O)C(CC(=O)Nc1ccc(Cl)nn1)c1ccc(C(F)(F)F)cc1 (centres undefined)

IC50 [1]: 50 µM
SMILES: COC(=O)C(CC(=O)Nc1ccc(C(=O)c2nccn2C)cc1)c1ccc(OC)cc1 (centres undefined)
